{"source": "patent US20240052305A1", "about": "“CHEMICAL INDUCTION METHOD FOR PHOTORECEPTOR NEURON CELLS” (IREGENE THERAPEUTICS LTD, priority 2020, published 2024)", "key": {"[1]": {"test_system": "ectoderm cells", "test": "Differentiation of ectoderm cells into photoreceptor neuron cells with AM580 (morphology, Q-PCR, immunofluorescence)", "type": "cell-based, human", "experimental": "The ectoderm cells obtained by the NouvNeu system in Example 2 were subjected to directed differentiation in NouvNeu medium. For differentiation, a 6-well culture plate was coated by 50 ug/ml poly-lysine (SIGMA, P6407), incubated in an incubator at 37° C. for more than 3 hours until cells were seeded.\nThe photoreceptor neuron cell induction medium of the present invention was obtained by supplementing the NouvNeu-basal base medium with 55 nM-25 uM LY2157299 (with an optimal concentration of 7.5 uM) (preferably 100 nM, 300 nM, 500 nM, 700 nM, 900 nM, 1 uM, 2.5 uM, 5 uM, 7.5 uM, 10 uM, 12.5 uM, 15 uM, 17.5 uM, 20 uM or 22 uM) and 0.05-0.95 uM AM580 (Selleck) (with an optimal concentration of 0.5 uM) (preferably 0.08 uM, 0.09 uM, 0.1 uM, 0.2 uM, 0.3 uM, 0.5 uM, 0.6 uM, 0.7 uM, 0.8 uM, 0.9 uM). The cells were cultured until photoreceptor neuron cell were formed. A control experiment was performed by adding 0.5 uM retinoic acid to the NouvNeu medium, hereinafter referred to as RA.\nThe screening test of AM580 concentration was carried out with reference to Example 2.3, and the expression difference of photoreceptor neuron cells obtained by using different concentrations of AM580 in the AM580 induction method and the LSB induction method was compared. See Table 2 and Table 4 for the details of primers used. […] In combination with the effect of AM580 on the expression of photoreceptor neuron-specific genes shown in FIG. 4, it could be concluded that the concentrations of AM580 used in the present invention are within the range of optimal concentration.\nThe medium was replaced with fresh medium every 3 days until day 21. The conditions for culture were at 37° C., 5% CO2 (Panasonic, MCO-18AC). After the induction was completed, the samples in experimental group and control group were respectively identified by immunofluorescence staining as follows: cells were fixed with 4% paraformaldehyde at room temperature for 40 minutes, washed twice with DPBS buffer; then permeabilized with 0.1% Triton X-100 for 5 minutes, washed twice with DPBS buffer; then incubated overnight at 4° C. with DPBS buffer containing 10% horse serum and 0.1% Triton X-100; added with a primary antibody diluted in DPBS buffer containing 2% horse serum and 0.1% Triton X-100, incubated at 37° C. for two hours, and washed three times with DPBS buffer, added with a secondary antibody diluted in DPBS buffer containing 2% horse serum and 0.1% Triton X-100, and then photographed.\nTranscription changes of different marker genes during induction from ectoderm cells to photoreceptor neuron cells were detected by Q-PCR. The photoreceptor cells obtained by using the present invention and different concentrations of AM580, and the photoreceptor cells obtained by the RA control induction method were respectively extracted with RNeasy Mini or Micro Kit (QIAGEN) for total RNA, and cDNA was synthesized by […] RNA via SuperScript III First-Strand Synthesis System (Invitrogen). SYBR Premix Ex Taq (TaKaRa) and Thermal Cycler Dice Real Time System (TaKaRa) were used for labeling and reaction of Quantitative PCR, and beta-Actin was used as internal control. All data were analyzed by delta-Ct method. Three replicates were used for each group of experiments, and ANOVA was performed."}, "[2]": {"test_system": "ectoderm cells", "test": "Differentiation of the ectoderm cells into neural stem cells (neural rosettes, immunofluorescence, Q-PCR)", "type": "cell-based, human", "experimental": "Ectoderm cells could be further cultured to form neural stem cells. In order to identify this ability of ectoderm cells, the ectoderm cells obtained in Example 2.1 were further cultured in vitro by using a NouvNeu-basal base medium supplemented with 7.5 uM LY2157299 and 0.5-20 uM JW55 (with an optimal concentration of 5 uM) until a neural rosette-like structure was formed. The LSB induction method was used as a control. […]\nTranscription changes of different marker genes during induction from ectoderm cells to neural stem cells were detected by Q-PCR. […] SYBR Premix Ex Taq (TaKaRa) and Thermal Cycler Dice Real Time System (TaKaRa) were used for labeling and reaction by Quantitative PCR, and beta-Actin was used as internal control. All data were analyzed by delta-Ct method. […]"}, "[3]": {"test_system": "human pluripotent stem cells", "test": "Chemical induction of ectoderm cells from pluripotent stem cells with different concentrations of LY2157299 (morphology, Q-PCR)", "type": "cell-based", "experimental": "The ectoderm cell induction medium of the present invention was obtained by supplementing the NouvNeu-basal base medium with 55 nM-25 uM LY2157299 (Selleck) (with an optimal concentration of 7.5 uM) (preferably 100 nM, 300 nM, 500 nM, 700 nM, 900 nM, 1 uM, 2.5 uM, 5 uM, 7.5 uM, 10 uM, 12.5 uM, 15 uM, 17.5 uM, 20 uM or 22 uM). An induction method using said ectoderm cell induction medium was hereinafter referred to as a LY induction method.\nEctoderm cells were derived from human pluripotent stem cells, including embryogenic pluripotent stem cells, such as H9 cell line and human induced pluripotent stem cells. Human induced pluripotent stem cells were obtained by reprogramming from CD34+ cells according to “Reprogrammed culture medium and culture method of reprogrammed induced multipotential stem cell” (ZL 201910050800.7). In the present invention, “induced pluripotent stem cells” and “pluripotent stem cells” were used interchangeably.\nDuring the induction of ectoderm cells, a 6-well culture plate was coated by using 50 ug/ml polylysine (SIGMA, P6407), and incubated in an incubator at 37° C. for more than 3 hours; then further coated by 5 ug/ml laminin (Laminin, I2020, SIGMA ALDRICH), and incubated in an incubator at 37° C. for more than 3 hours after plating. After the pluripotent stem cells reached 70% coverage, they were digested with EDTA at 37° C. for 5 min, and the cell digestion was terminated with DMEM. After washing and centrifugation, the cells were re-plated in the T25 culture plate at 2×10^5 cells per flask. The neural stem cell induction medium of the present invention was used for induction, and replaced with fresh induction medium every day until lamellar ectoderm cells were formed.\nThe effect of different concentrations of LY2157299 on the formation of ectoderm cells was detected by Q-PCR. The ectoderm cells obtained from the induced pluripotent stem cells in Example 2 by using different concentrations of LY2157299 in the LY induction method and LSB induction method were respectively extracted with RNeasy Mini or Micro Kit (QIAGEN) for total RNA, and cDNA was synthesized by […] RNA via SuperScript III First-Strand Synthesis System (Invitrogen). SYBR Premix Ex Taq (TaKaRa) and Thermal Cycler Dice Real Time System (TaKaRa) were used for labeling and reaction by Quantitative PCR, and beta-Actin was used as internal control. All data were analyzed by delta-Ct method. Triplicates were used for each group of experiments, and ANOVA was performed."}, "[4]": {"test_system": "photoreceptor cells", "test": "Cyquant cell viability assay during induction of photoreceptor cells", "type": "cell-based, human", "conditions": "Cyquant test, FIGS. 6e-6g", "source_text": "The Cyquant test was also used to detect the effect of progesterone, putrescine and Optiferrin on cell viability, so as to study the effects of different concentrations of progesterone, putrescine and Optiferrin on the physiological state of cells during the induction of photoreceptor cells."}, "[5]": {"test": "Osmotic pressure of the culture system by freezing point osmometer", "type": "physicochemical", "parameters": "osmotic pressure of the culture system: dose or concentration left out as unconfirmed", "experimental": "A screening culture system was prepared by using different concentration gradients of sodium chloride while maintaining the optimal concentration of other components. The effect of different concentrations of sodium chloride on the osmotic pressure of culture system was detected by using an automatic freezing point osmometer (FM-8P, Shanghai Medical University Instrument Co., Ltd.), and specific operations were performed according to the product manual (FM-8P, Shanghai Medical University Instrument Co., Ltd.)."}, "[6]": {"test_system": "human pluripotent stem cells", "test": "Cyquant cell viability assay during ectoderm induction, long-term culture", "type": "cell-based", "conditions": "for number of cells induced versus concentration: Cyquant test, FIGS. 6c-6d", "experimental": "A screening culture system was prepared by using different concentration gradients of insulin or vitamin C while maintaining the optimal concentration of other components. Ectoderm induction was performed according to the method in Example 2.1. The cell viability was quantitatively detected by Cyquant assay to study the effects of insulin or vitamin C on the physiological state of cells during long-term cell culture. A 96-well opaque cell culture plate was coated, and then the cells are inoculated at 5×10^4 cells per well, wherein parallel triplicates were set up (the average of the three groups was calculated as the data). The steps in Example 2.1 were repeated with the culture conditions of 37° C., 5% CO2. Samples were taken at day 1, day 5, day 10 and day 20, respectively, and the cell viability detection was carried out by CyQuant Kit (Invitrogen, X12223) according to the instruction manual, and data were read by SpectraMax i3 Multi-Mode Microplate Reader (VWR, ID3-STD). […] Therefore, in combination with cost factors, the insulin or vitamin C in the basal medium of the present invention was the optimal concentration."}, "[7]": {"test_system": "photoreceptor neuron cells", "test": "Screening test of vitamin B12 concentration (Q-PCR of photoreceptor neuron cells)", "type": "cell-based, human", "experimental": "The screening test of vitamin B12 concentration was carried out with reference to Example 2.3, and the expression difference of photoreceptor neuron cells obtained by using different concentrations of vitamin B12 was compared. See Table 2 and Table 4 for the details of primers used. […] Therefore, the concentration of vitamin B12 used in the present invention was the optimal concentration."}}, "note": "Entries after “also recorded” stand apart in the source; their conditions may differ."}
{"compound": "CC1(C)CCC(C)(C)c2cc(C(=O)Nc3ccc(C(=O)O)cc3)ccc21", "note": "[AM580]", "values": [{"measurement": "marker PAX6 versus concentration", "setting": "[1]; Q-PCR, FIG. 3f", "result": "positively correlated"}, {"measurement": "apoptotic markers versus concentration", "setting": "[1]; Q-PCR, FIG. 3g", "result": "positively correlated"}, {"measurement": "expression of photoreceptor cell-specific marker genes", "setting": "[1]; Q-PCR, compared with RA control, FIG. 4", "result": "could induce the expression of multiple photoreceptor cell-specific marker genes, which was not significantly lower than that of the RA control"}, {"measurement": "morphology of differentiated cells", "setting": "[1]; appropriate concentration, FIG. 3d", "result": "uniformly differentiated photoreceptor cells with short axons"}, {"measurement": "apoptosis", "setting": "[1]; concentration too high", "result": "lead to apoptosis"}, {"measurement": "morphology of differentiated cells", "setting": "[1]; excessively high concentration, FIG. 3e", "result": "results in stress in differentiated cells"}, {"measurement": "protein expression of photoreceptor markers", "setting": "[1]; fluorescent immunoassay, FIG. 5", "result": "same protein expression patterns with that in the RA control group"}, {"measurement": "optimal concentration of AM580", "setting": "[1]; induction of photoreceptor cells, screening of different concentrations (FIG. 3)", "result": 0.5, "unit": "µM"}, {"measurement": "morphology of differentiated cells", "setting": "[1]; low concentration, FIG. 3c", "result": "differentiation into mixed cells including cortical neurons"}]}
{"compound": "Cc1cccc(-c2nn3c(c2-c2ccnc4ccc(C(N)=O)cc24)CCC3)n1", "note": "[LY2157299, 4-(2-(6-methylpyridin-2-yl)-5,6-dihydro-4H-pyrrolo[1,2-b]pyrazol-3-yl) quinoline-6-carboxamide]", "values": [{"measurement": "expression of neural stem cell markers compared with the control method", "setting": "[2]; Q-PCR, FIGS. 1e-1f", "result": "slightly increase the expression of neural stem cell markers"}, {"measurement": "neural stem cell markers after formation of neural rosettes", "setting": "[2]; immunofluorescence staining, FIGS. 1a-1d", "result": "can express neural stem cell markers Pax6 and Nestin"}, {"measurement": "ectoderm markers versus concentration", "setting": "[3]; Q-PCR, FIG. 2f", "result": "positively correlated"}, {"measurement": "apoptotic markers versus concentration", "setting": "[3]; Q-PCR, FIG. 2g", "result": "positively correlated"}, {"measurement": "formation of ectoderm cells (morphology)", "setting": "[3]; appropriate concentration, FIG. 2d", "result": "uniformly differentiated ectoderm cells"}, {"measurement": "formation of ectoderm cells (morphology)", "setting": "[3]; excessively high concentration, FIG. 2e", "result": "promote the differentiation of ectoderm cells into neural cells"}, {"measurement": "cell apoptosis", "setting": "[3]; high concentration", "result": "induced cell apoptosis"}, {"measurement": "optimal concentration of LY2157299", "setting": "[3]; induction of ectoderm cells, screening of different concentrations (FIG. 2)", "result": 7.5, "unit": "µM"}, {"measurement": "formation of ectoderm cells (morphology)", "setting": "[3]; low concentration, FIG. 2c", "result": "differentiation into mixed cell including ectodermal cells; also recorded: the ectoderm could not be completely formed"}]}
{"compound": "CC(=O)[C@H]1CC[C@H]2[C@@H]3CCC4=CC(=O)CC[C@]4(C)[C@H]3CC[C@]12C", "note": "[progesterone]", "values": [{"measurement": "cell proliferation rate versus concentration", "setting": "[4]", "result": "positively correlated"}]}
{"compound": "NCCCCN", "note": "[putrescine]", "values": [{"measurement": "cell proliferation rate versus concentration", "setting": "[4]", "result": "positively correlated"}]}
{"compound": "[Cl-].[Na+]", "note": "[sodium chloride]", "values": [{"measurement": "osmotic pressure of the culture system versus concentration", "setting": "[5]; concentration gradients, FIG. 6a", "result": "increased linearly"}, {"measurement": "osmotic pressure of the culture system", "setting": "[5]; sodium chloride concentration", "result": "> 320", "unit": "mOsm/kg"}]}
{"compound": "O=C1O[C@H]([C@@H](O)CO)C(O)=C1O", "note": "[vitamin C, L-ascorbic acid]", "values": [{"measurement": "number of cells induced versus concentration", "setting": "[6]", "result": "positively correlated"}, {"measurement": "number of cells compared with the optimal concentration", "setting": "[6]; high concentration", "result": "not significantly different"}, {"measurement": "state of cells in the late stage of induction", "setting": "[6]; high concentration", "result": "caused the cells to shed in pieces"}]}
{"compound": "Optiferrin: component of the NouvNeu-basal base medium (SIGMA)", "values": [{"measurement": "cell proliferation rate versus concentration", "setting": "[4]", "result": "positively correlated"}]}
{"compound": "insulin: component of the NouvNeu-basal base medium", "values": [{"measurement": "number of cells induced versus concentration", "setting": "[6]", "result": "positively correlated"}, {"measurement": "number of cells compared with the optimal concentration", "setting": "[6]; high concentration", "result": "not significantly different"}]}
{"compound": "vitamin B12", "values": [{"measurement": "photoreceptor non-specific marker PAX6 versus concentration", "setting": "[7]; Q-PCR, FIG. 6b", "result": "positively correlated"}, {"measurement": "relative expression of PAX6", "setting": "[7]; concentration too high", "result": "decrease in the relative expression of PAX6"}]}
